Source: US8513233B2, “Pyrimidinyl-propionic acid derivatives and their use as PPAR agonists” (Shanghai Institute of Materia Medica, CAS, priority 2007, dated 2013)

Columns and labels:
[1] = test system: human renal epithelial cells (HKC); details: cited from earlier work
[2] = test system: ADPKD cyst-lining epithelia; details: dose-dependent and time-dependent; cited from earlier work
SPC-A1 = assay: Growth inhibition, modified MTT assay, SPC-A1; assay type: cell-based; details: SPCA1, mean of 3 independent tests
Summary of the method: (§1)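 Cells seeded 24 h in 10% FCS medium, switched to serum-free medium for 24 h, then exposed to graded compound concentrations in triplicate. Viability read by MTT (4 h), formazan dissolved in DMSO, OD at 492 nm; IC50 from sigmoidal fit, mean of 3 independent tests.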

T24 = assay: Growth inhibition, modified MTT assay, T24; assay type: cell-based; details: Homo sapiens, T-24, mean of 3 independent tests
Summary of the method: as §1

PPAR-γ = biological target: T1, PPAR-γ (Homo sapiens, UniProt P37231); assay: Transient transfection and transcription assay (luciferase reporter, U2OS cells); assay type: cell-based; details: 24 h treatment
T1 construct: expressed in transfected cells; host or cells: U2OS cells, transiently transfected with pcDNA3.1 expression vectors (FuGene6)
T1 sequence (P37231 1-505): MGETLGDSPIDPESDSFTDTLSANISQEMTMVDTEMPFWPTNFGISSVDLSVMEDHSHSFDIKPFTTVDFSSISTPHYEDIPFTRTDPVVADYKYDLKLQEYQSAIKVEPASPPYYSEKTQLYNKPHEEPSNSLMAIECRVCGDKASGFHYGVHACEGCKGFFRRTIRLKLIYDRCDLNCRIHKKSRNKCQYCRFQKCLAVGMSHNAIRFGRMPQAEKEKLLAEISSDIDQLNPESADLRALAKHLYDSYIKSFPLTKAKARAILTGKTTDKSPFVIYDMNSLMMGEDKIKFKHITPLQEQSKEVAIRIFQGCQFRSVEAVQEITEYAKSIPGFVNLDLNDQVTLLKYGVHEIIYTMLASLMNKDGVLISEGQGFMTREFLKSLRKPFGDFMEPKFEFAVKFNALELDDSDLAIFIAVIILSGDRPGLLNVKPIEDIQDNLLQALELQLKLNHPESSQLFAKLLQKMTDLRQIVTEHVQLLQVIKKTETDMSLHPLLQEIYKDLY
T1 sequence (P19793 1-462 partner): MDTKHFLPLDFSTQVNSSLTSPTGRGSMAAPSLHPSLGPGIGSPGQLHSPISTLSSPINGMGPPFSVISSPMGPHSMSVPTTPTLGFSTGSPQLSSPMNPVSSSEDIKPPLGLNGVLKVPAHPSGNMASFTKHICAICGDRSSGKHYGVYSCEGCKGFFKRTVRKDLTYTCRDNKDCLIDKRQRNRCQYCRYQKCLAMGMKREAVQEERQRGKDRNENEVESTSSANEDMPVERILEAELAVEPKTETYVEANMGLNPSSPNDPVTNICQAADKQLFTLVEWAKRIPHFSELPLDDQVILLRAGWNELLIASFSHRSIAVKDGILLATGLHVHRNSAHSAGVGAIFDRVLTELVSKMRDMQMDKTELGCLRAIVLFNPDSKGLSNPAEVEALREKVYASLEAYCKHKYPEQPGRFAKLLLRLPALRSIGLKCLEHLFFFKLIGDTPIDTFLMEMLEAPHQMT

HepG2 = assay: Growth inhibition, modified MTT assay, HepG2; assay type: cell-based; details: Homo sapiens, mean of 3 independent tests
Summary of the method: as §1

MCF-7 = assay: Growth inhibition, modified MTT assay, MCF-7; assay type: cell-based; details: Homo sapiens, MCF7; MCF-7, MTT, mean of 3 independent tests
Summary of the method: as §1

[3] = test system: Han:SPRD rats, animal model of ADPKD; assay: Administration of rosiglitazone on the Han:SPRD rats (earlier study); assay type: in vivo, rat; details: when they died, chronic high dose

Structure (SMILES) | melting point [°C] | IC50 (T24) [µM] | EC50 (PPAR-γ) [µM] | IC50 (HepG2) [µM] | IC50 (MCF-7) [µM] | heart and liver weight [3] | effect on human renal epithelial cells (HKC) [1] | apoptosis of ADPKD cyst-lining epithelia [2] | proliferation of ADPKD cyst-lining epithelia [2] | IC50 (SPC-A1) [µM]
CCCCC/C=C/C=C1/C(=O)C=C[C@@H]1C/C=C\CCCC(=O)O [Compound 15d-PGJ2, 15d-PGJ2] |  |  |  |  |  |  | relatively weak | induce apoptosis | inhibit the proliferation | 
CC(Cc1ccc(Oc2cc(N3CCN(Cc4cccc(Br)c4)CC3)nc(N)n2)cc1)(Oc1ccccc1)C(=O)O (centres unmarked) [Compound 16, 3-{4-{2-Amino-6-[4-(3-bromo-benzyl)-piperazin-1-yl]-pyrimidin-4-yloxy}-phenyl}-2-methyl-2-phenoxy-propionic acid] | 119 to 120 | 41 | 6.31 | 48 | 30 |  |  |  |  | 37
CN(CCOc1ccc(CC2SC(=O)NC2=O)cc1)c1ccccn1 (centres unmarked) [Rosiglitazone, reference compound] |  | 69 |  | 80.2 | 45.6 | heart and liver weight gain |  |  |  | 59.8

More lines, main results first:

melting point [°C] | IC50 (T24) [µM] | EC50 (PPAR-γ) [µM] | IC50 (HepG2) [µM] | IC50 (MCF-7) [µM] | heart and liver weight [3] | Structure (SMILES) | effect on human renal epithelial cells (HKC) [1] | apoptosis of ADPKD cyst-lining epithelia [2] | proliferation of ADPKD cyst-lining epithelia [2] | IC50 (SPC-A1) [µM]
112 to 114 | > 50 | 5.89 | > 50 | 42.2 |  | CC(Cc1ccc(Oc2cc(N3CCN(Cc4ccc(Br)cc4)CC3)nc(N)n2)cc1)(Oc1ccccc1)C(=O)O (centres unmarked) [Compound 15, 3-{4-{2-Amino-6-[4-(4-bromo-benzyl)-piperazin-1-yl]-pyrimidin-4-yloxy}-phenyl}-2-methyl-2-phenoxy-propionic acid] |  |  |  | 45.3
106 to 107 | > 50 | 6.03 | > 50 | 33.7 |  | CCNc1nc(Oc2ccc(CC(C)(Oc3ccccc3)C(=O)O)cc2)cc(N2CCN(Cc3ccccc3)CC2)n1 (centres unmarked) [Compound 50, 3-{4-[6-(4-Benzyl-piperazin-1-yl)-2-ethylamino-pyrimidin-4-yloxy]-phenyl}-2-methyl-2-phenoxy-propionic acid] |  |  |  | 46.6
104 to 106 | > 50 | 6.31 | > 50 | 22.8 |  | CC(Cc1ccc(Oc2cc(N3CCN(Cc4ccccc4)CC3)nc(NCc3ccccc3)n2)cc1)(Oc1ccccc1)C(=O)O (centres unmarked) [Compound 47, 3-{4-[2-Benzylamino-6-(4-benzyl-piperazin-1-yl)-pyrimidin-4-yloxy]-phenyl}-2-methyl-2-phenoxy-propionic acid] |  |  |  | 31.5
127 to 129 | 15.8 | 3.98 | 22.2 | 12.5 |  | CC(Cc1ccc(Oc2cc(N3CCN(Cc4ccccc4)CC3)nc(N3CCOCC3)n2)cc1)(Oc1ccccc1)C(=O)O (centres unmarked) [Compound 53, 3-{4-[6-(4-Benzyl-piperazin-1-yl)-2-morpholin-4-yl-pyrimidin-4-yloxy]-phenyl}-2-methyl-2-phenoxy-propionic acid] |  |  |  | 22.4
